Target: T1, HDAC6 enzyme (Homo sapiens, UniProt Q9UBN7)
T1 construct: transducing full length HDAC6 gene into Sf-9 insect cells; GST; purchased SignalChem; host or cells: Sf-9 insect cells
T1 sequence (Q9UBN7 1-1215): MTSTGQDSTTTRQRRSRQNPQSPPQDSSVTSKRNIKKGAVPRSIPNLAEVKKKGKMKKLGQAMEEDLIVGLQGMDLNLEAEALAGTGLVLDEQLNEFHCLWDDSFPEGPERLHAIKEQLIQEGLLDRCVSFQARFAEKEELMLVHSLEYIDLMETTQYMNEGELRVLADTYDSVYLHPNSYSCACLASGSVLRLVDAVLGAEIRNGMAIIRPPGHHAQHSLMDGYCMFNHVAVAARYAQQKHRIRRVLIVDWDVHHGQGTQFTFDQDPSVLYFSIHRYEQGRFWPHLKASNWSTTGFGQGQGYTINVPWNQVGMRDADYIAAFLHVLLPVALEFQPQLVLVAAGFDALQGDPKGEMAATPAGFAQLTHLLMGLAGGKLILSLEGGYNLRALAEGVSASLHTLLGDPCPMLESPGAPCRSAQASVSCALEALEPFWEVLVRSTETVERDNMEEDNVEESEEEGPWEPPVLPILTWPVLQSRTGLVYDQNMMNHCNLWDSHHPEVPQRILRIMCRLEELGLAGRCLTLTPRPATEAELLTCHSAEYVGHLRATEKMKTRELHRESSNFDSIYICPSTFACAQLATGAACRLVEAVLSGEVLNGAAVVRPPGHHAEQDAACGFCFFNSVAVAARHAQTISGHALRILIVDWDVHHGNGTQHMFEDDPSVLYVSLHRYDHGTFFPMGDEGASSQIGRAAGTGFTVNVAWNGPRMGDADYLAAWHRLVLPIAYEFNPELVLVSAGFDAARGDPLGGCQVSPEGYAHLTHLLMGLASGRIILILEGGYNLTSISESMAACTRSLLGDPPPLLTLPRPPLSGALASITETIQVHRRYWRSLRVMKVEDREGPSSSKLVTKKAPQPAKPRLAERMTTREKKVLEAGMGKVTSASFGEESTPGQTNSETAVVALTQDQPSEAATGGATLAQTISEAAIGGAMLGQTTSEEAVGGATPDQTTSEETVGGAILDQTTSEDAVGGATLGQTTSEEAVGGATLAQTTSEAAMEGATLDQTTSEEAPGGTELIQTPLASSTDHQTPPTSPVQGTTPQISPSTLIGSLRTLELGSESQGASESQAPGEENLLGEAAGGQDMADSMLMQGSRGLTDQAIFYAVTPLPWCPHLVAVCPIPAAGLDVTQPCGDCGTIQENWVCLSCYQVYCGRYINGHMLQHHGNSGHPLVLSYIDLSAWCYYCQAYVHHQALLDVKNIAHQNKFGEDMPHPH
Test: HDAC6 enzyme inhibitory activity (HDAC-Glo I/II Assay kit)
Format: biochemical
Details: 10 μM; wells without enzyme = 100% inhibition
Method in brief: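 Full-length human HDAC6 (GST-purified, Sf-9 expressed) preincubated with compound 60 min at room temperature in Tris-HCl pH 7.5 buffer with MgCl2, KCl, NaCl, glutathione, Tween-20. HDAC-Glo I/II substrate-developer then added, 20 min room temperature, luminescence read. Inhibition relative to no-enzyme wells as 100%.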

With O=C1c2cc(-c3nnc(C(F)F)o3)ccc2CN1[C@H]1CCCC[C@H]1n1cccn1 (relative stereo) [Example 543, 6-(5-(difluoromethyl)-1,3,4-oxadiazol-2-yl)-2-((1S*,2R*)-2-(1H-pyrazol-1-yl)cyclohexyl)isoindolin-1-one (optical isomer)] the “HDAC6 inhibitory rate (%) (10 μM)” value was 100%.

Same assay, conditions: 10 μM; wells without enzyme = 100% inhibition; read-out: HDAC6 inhibitory rate (%) (10 μM)

Point of comparison: O=C1c2cc(-c3nnc(C(F)F)o3)ccc2CN1Cc1ccccc1 [Example 58, 2-benzyl-6-(5-(difluoromethyl)-1,3,4-oxadiazol-2-yl)isoindolin-1-one], inhibition at 10 µM 98%. Against it:
- O=C1c2cc(-c3nnc(C(F)F)o3)ccc2CN1C1CCOCC1 [Example 122, 6-(5-(difluoromethyl)-1,3,4-oxadiazol-2-yl)-2-(tetrahydro-2H-pyran-4-yl)isoindolin-1-one] — lower, 95%
- O=C1c2cc(-c3nnc(C(F)F)o3)ccc2CN1c1ccccc1-c1cccc2c1OCC2 [Example 289, 6-(5-(difluoromethyl)-1,3,4-oxadiazol-2-yl)-2-(2-(2,3-dihydro-1-benzofuran-7-yl)phenyl)isoindolin-1-one] — higher, 101%
- O=C1c2cc(-c3nnc(C(F)F)o3)cc(F)c2CN1c1ccccc1-c1cnn(C(F)F)c1 [Example 390, 6-(5-(difluoro-methyl)-1,3,4-oxadiazol-2-yl)-2-(2-(1-(difluoro-methyl)-1H-pyrazol-4-yl)phenyl)-4-fluoroisoindolin-1-one] — higher, 100%
- C[C@H](C1CC1)N1Cc2ccc(-c3nnc(C(F)F)o3)cc2C1=O [Example 115, 2-((1R)-1-cyclopropylethyl)-6-(5-(difluoromethyl)-1,3,4-oxadiazol-2-yl)isoindolin-1-one] — lower, 96%
- O=C1c2cc(-c3nnc(C(F)F)o3)ccc2CN1c1cccnc1-c1cnn(C(F)F)c1 [Example 387, 6-(5-(difluoro-methyl)-1,3,4-oxadiazol-2-yl)-2-(2-(1-(difluoro-methyl)-1H-pyrazol-4-yl)pyridin-3-yl) isoindolin-1-one] — higher, 101%
- O=C1c2cc(-c3nnc(C(F)F)o3)ccc2CN1c1cccc(F)c1-c1cccc(Cl)c1 [Example 397, 2-(3′-chloro-6-fluorobiphenyl-2-yl)-6-(5-(difluoro-methyl)-1,3,4-oxadiazol-2-yl) isoindolin-1-one] — higher, 100%
- O=C1CCCCN1[C@@H]1CCCC[C@H]1N1Cc2ccc(-c3nnc(C(F)F)o3)cc2C1=O [Example 20, 6-(5-(difluoromethyl)-1,3,4-oxadiazol-2-yl)-2-((1R,2R)-2-(2-oxopiperidin-1-yl)cyclohexyl)isoindolin-1-one] — higher, 100%
- O=C1c2cc(-c3nnc(C(F)F)o3)cnc2CN1[C@@H]1CC(F)(F)CC[C@H]1NC(=O)C(F)(F)C(F)F [Example 644, N-((1R,2R)-2-(3-(5-(difluoromethyl)-1,3,4-oxadiazol-2-yl)-5-oxo-5,7-dihydro-6H-pyrrolo[3,4-b]pyridin-6-yl)-4,4-difluorocyclohexyl)-2,2,3,3-tetrafluoropropanamide] — higher, 99%
- CC(C)(F)C(=O)N[C@@H]1CCCC[C@H]1N1Cc2ccc(-c3nnc(C(F)F)o3)cc2C1=O [Example 106, N-((1R,2R)-2-(6-(5-(difluoromethyl)-1,3,4-oxadiazol-2-yl)-1-oxo-1,3-dihydro-2H-isoindol-2-yl)cyclohexyl)-2-fluoro-2-methylpropanamide] — higher, 99%
- O=C1c2cc(-c3nnc(C(F)F)o3)ccc2CN1[C@@H]1CCOC[C@H]1n1nnc2cc(Cl)ccc21 [Example 563, 2-((3S,4R)-3-(5-chloro-1H-benzotriazol-1-yl)tetrahydro-2H-pyran-4-yl)-6-(5-(difluoromethyl)-1,3,4-oxadiazol-2-yl)isoindolin-1-one] — higher, 100%
- CC(C)(OC(=O)N[C@H]1[C@H](N2Cc3ccc(-c4nnc(C(F)F)o4)cc3C2=O)CCCC1(F)F)C(F)F [Example 583, 1,1-difluoro-2-methylpropan-2-yl ((1S,6R)-6-(6-(5-(difluoromethyl)-1,3,4-oxadiazol-2-yl)-1-oxo-1,3-dihydro-2H-isoindol-2-yl)-2,2-difluorocyclohexyl)carbamate] — higher, 99%
- CC(C)(C(=O)N[C@@H]1COCC[C@H]1N1Cc2c(F)cc(-c3nnc(C(F)F)o3)cc2C1=O)C(F)(F)F [Example 202, N-((3S,4R)-4-(6-(5-(difluoromethyl)-1,3,4-oxadiazol-2-yl)-4-fluoro-1-oxo-1,3-dihydro-2H-isoindol-2-yl)tetrahydro-2H-pyran-3-yl)-3,3,3-trifluoro-2,2-dimethylpropanamide] — higher, 101%
- Cn1cc(-c2cccc(Cl)c2)c(N2Cc3ccc(-c4nnc(C(F)F)o4)cc3C2=O)n1 [Example 369, 2-(4-(3-chlorophenyl)-1-methyl-1H-pyrazol-3-yl)-6-(5-(difluoro-methyl)-1,3,4-oxadiazol-2-yl)isoindolin-1-one] — higher, 99%
- O=C1c2cc(-c3nnc(C(F)F)o3)cc(F)c2CN1C[C@H]1COCCN1S(=O)(=O)c1ccc(F)cc1 [Example 252, 6-(5-(difluoromethyl)-1,3,4-oxadiazol-2-yl)-4-fluoro-2-(((3S)-4-((4-fluorophenyl)-sulfonyl)morpholin-3-yl)-methyl)isoindolin-1-one] — higher, 99%
- O=C1c2cc(-c3nnc(C(F)F)o3)cnc2CN1[C@@H]1CCCC(F)(F)[C@H]1NC(=O)C(F)(F)C(F)F [Example 601, N-((1S,6R)-6-(3-(5-(difluoromethyl)-1,3,4-oxadiazol-2-yl)-5-oxo-5,7-dihydro-6H-pyrrolo[3,4-b]pyridin-6-yl)-2,2-difluorocyclohexyl)-2,2,3,3-tetrafluoropropanamide] — higher, 99%
- O=C1c2cc(-c3nnc(C(F)F)o3)ccc2CN1[C@@H]1CCC(F)(F)C[C@@H]1NC(=O)C(F)(F)C(F)(F)F [Example 515, N-((1S,2R)-2-(6-(5-(difluoro-methyl)-1,3,4-oxadiazol-2-yl)-1-oxo-1,3-dihydro-2H-isoindol-2-yl)-5,5-difluoro-cyclohexyl)-2,2,3,3,3-pentafluoro-propanamide] — higher, 99%
- CC(C)(C)OC(=O)N[C@H]1COCC[C@H]1N1Cc2c(F)cc(-c3nnc(C(F)F)o3)cc2C1=O [Example 363, tert-butyl ((3R,4R)-4-(6-(5-(difluoromethyl)-1,3,4-oxadiazol-2-yl)-4-fluoro-1-oxo-1,3-dihydro-2H-isoindol-2-yl)tetrahydro-2H-pyran-3-yl)carbamate] — higher, 99%
- O=C1c2cc(-c3nnc(C(F)F)o3)ccc2CN1[C@@H]1CCC(F)(F)C[C@H]1NC(=O)C(F)(F)C(F)(F)F [Example 469, N-((1R,2R)-2-(6-(5-(difluoromethyl)-1,3,4-oxadiazol-2-yl)-1-oxo-1,3-dihydro-2H-isoindol-2-yl)-5,5-difluorocyclohexyl)-2,2,3,3,3-pentafluoropropanamide] — higher, 99%
- O=C1c2cc(-c3nnc(C(F)F)o3)ccc2CN1[C@@H]1CC(F)(F)CC[C@H]1NC(=O)C(F)(F)C(F)(F)F [Example 635, N-((1R,2R)-2-(6-(5-(difluoromethyl)-1,3,4-oxadiazol-2-yl)-1-oxo-1,3-dihydro-2H-isoindol-2-yl)-4,4-difluorocyclohexyl)-2,2,3,3,3-pentafluoropropanamide] — higher, 99%
- Cn1nc(C(F)(F)F)cc1-c1ccccc1N1Cc2c(F)cc(-c3nnc(C(F)F)o3)cc2C1=O [Example 394, 6-(5-(difluoro-methyl)-1,3,4-oxadiazol-2-yl)-4-fluoro-2-(2-(1-methyl-3-(trifluoro-methyl)-1H-pyrazol-5-yl)phenyl) isoindolin-1-one] — higher, 99%
- O=C1c2ccc(-c3nnc(C(F)F)o3)cc2C(=O)N1C[C@H]1COCCN1S(=O)(=O)C1CC1 [Example 239, 2-(((3S)-4-(cyclopropylsulfonyl)-morpholin-3-yl)methyl)-5-(5-(difluoromethyl)-1,3,4-oxadiazol-2-yl)-1H-isoindole-1,3(2H)-dione] — higher, 99%
